Source: patent US9540343B2 (Gilead Sciences, Inc., priority 2011, dated 2017)

Columns and labels:
HIV-IIIb = experiment: Test A: Antiviral assay in MT4 cells; assay type: cell-based, HIV-1; conditions: Human immunodeficiency virus 1, IIIB, MT4, 120 h, read-out: % inhibition at 2 μM, percent inhibition of virus-induced cell killing, from dose response curve at 2 uM drug; MT-4 cells infected with HIV-IIIb, 5 days, CellTiter-Glo
in vitro = conditions: human, uninfected MT-4 cells, CC50 (nM), same protocol as Test A, CellTiter-Glo
In short: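 Cytoprotection read-out: CellTiter-Glo chemiluminescence after 5 days at 37 °C of HIV-IIIb-infected MT-4 cells (m.o.i. 0.003) with compound in 10-point 3-fold dilutions, quadruplicate, 10% FBS. Cytotoxicity (CC50) measured identically without virus.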

Row | SMILES | inhibition at 2 µM (HIV-IIIb) | CC50 at 5 days (in vitro)
1 | Cc1cc(-c2cccnc2[C@H](Cc2cc(F)cc(F)c2)NC(=O)Cn2nc(C(F)(F)F)c3c2CCCC3)ccc1F [Example 65, (S)—N-(2-(3,5-difluorophenyl)-1-(3-(4-fluoro-3-methylphenyl)pyridin-2-yl)ethyl)-2-(3-(trifluoromethyl)-4,5,6,7-tetrahydro-1H-indazol-1-yl)acetamide] | 33% | 11100 nM
2 | O=C(Cc1c[nH]c2ccc(F)cc12)N[C@@H](Cc1cc(F)cc(F)c1)c1ncccc1-c1cccc(C(=O)NC2CC2)c1 [Example 66, (S)—N-cyclopropyl-3-(2-(2-(3,5-difluorophenyl)-1-(2-(5-fluoro-1H-indol-3-yl)acetamido)ethyl)pyridin-3-yl)benzamide] | -2% | 16800 nM
3 | O=C(Cc1c[nH]c2ccc(F)cc12)N[C@@H](Cc1cc(F)cc(F)c1)c1ncccc1-c1cccc(OC(F)(F)F)c1 [Example 67, (S)—N-(2-(3,5-difluorophenyl)-1-(3-(3-(trifluoromethoxy)phenyl)pyridin-2-yl)ethyl)-2-(5-fluoro-1H-indol-3-yl)acetamide] | 0% | 6460 nM
4 | COC(=O)Nc1ccc(-c2cccnc2[C@H](Cc2cc(F)cc(F)c2)NC(=O)Cn2nc(C(F)F)c3c2C(F)(F)C2CC32)cc1 (stereo partly drawn) [Example 68B, (S)-methyl 4-(2-(1-(3-(difluoromethyl)-5,6-dihydro-4,5-(methano)-6,6-difluoro-cyclopenta[c]pyrazol-1(4H)-ylacetamido)-2-(3,5-difluorophenyl)ethyl)pyridin-3-yl)phenylcarbamate] | 28% | > 53200 nM
5 | Cc1ccc(-c2cccnc2[C@H](Cc2cc(F)cc(F)c2)NC(=O)Cc2c[nH]c3ccc(F)cc23)cc1 [Example 69, (S)—N-(2-(3,5-difluorophenyl)-1-(3-p-tolylpyridin-2-yl)ethyl)-2-(5-fluoro-1H-indol-3-yl)acetamide] | 84% | 6690 nM
6 | CC(C)NS(=O)(=O)c1ccc(-c2cccnc2[C@H](Cc2cc(F)cc(F)c2)NC(=O)Cn2nc(C(F)F)c3c2C(F)(F)C2CC32)cc1 (stereo partly drawn) [Example 70, (S)—N-(1-(3-(4-(N-isopropylsulfamoyl)phenyl)-pyridin-2-yl)-2-(3,5-difluorophenyl)ethyl)-2-(3-(difluoromethyl)-5,6-dihydro-4,5-(methano)-6,6-difluoro-cyclopenta[c]pyrazol-1(4H)-yl)acetamide] | 56% | 51200 nM
7 | O=C(Cn1nc(C(F)F)c2c1C(F)(F)C1CC21)N[C@@H](Cc1cc(F)cc(F)c1)c1ncccc1-c1ccc(S(=O)(=O)N2CCCCC2)cc1 (stereo partly drawn) [Example 71, (S)—N-(1-(3-(4-((piperidin-1-yl)sulfonyl)phenyl)-pyridin-2-yl)-2-(3,5-difluorophenyl)ethyl)-2-(3-(difluoromethyl)-5,6-dihydro-4,5-(methano)-6,6-difluoro-cyclopenta[c]pyrazol-1(4H)-yl)acetamide] | 64% | > 53200 nM
8 | O=C(Cc1c[nH]c2ccc(F)cc12)N[C@@H](Cc1cc(F)cc(F)c1)c1ncccc1-c1ccsc1 [Example 72, (S)—N-(2-(3,5-difluorophenyl)-1-(3-(thiophen-3-yl)pyridin-2-yl)ethyl)-2-(5-fluoro-1H-indol-3-yl)acetamide] | 56% | 16200 nM
9 | Cn1ncc2ccc(-c3cccnc3[C@H](Cc3cc(F)cc(F)c3)NC(=O)Cn3nc(C(F)F)c4c3C(F)(F)C3CC43)cc21 (stereo partly drawn) [Example 73, (S)—N-(1-(3-(1-methylindazole-6-yl)-pyridin-2-yl)-2-(3,5-difluorophenyl)ethyl)-2-(3-(difluoromethyl)-5,6-dihydro-4,5-(methano)-6,6-difluoro-cyclopenta[c]pyrazol-1(4H)-yl)acetamide] | 15% | 9790 nM
10 | CC12CCC(c3c(C(F)(F)F)nn(CC(=O)N[C@@H](Cc4cc(F)cc(F)c4)c4ncccc4-c4ccc(F)c(C(N)=O)c4)c31)C2(C)C (stereo partly drawn) [Example 74D, (S)-5-(2-(2-(3,5-difluorophenyl)-1-(2-(L-4,5,6,7-Tetrahydro-3-trifluoromethyl-7,8,8-trimethyl-1H-4,7-(methano)indazol-1-yl)acetamido)ethyl)pyridin-3-yl)-2-fluorobenzamide] | 4% | 8470 nM
11 | Cc1ccc2cc(-c3cccnc3[C@H](Cc3cc(F)cc(F)c3)NC(=O)Cn3nc(C(F)F)c4c3C(F)(F)C3CC43)ccc2n1 (stereo partly drawn) [Example 75, (S)—N-(1-(3-(2-methylquinoline-6-yl)-pyridin-2-yl)-2-(3,5-difluorophenyl)ethyl)-2-(3-(difluoromethyl)-5,6-dihydro-4,5-(methano)-6,6-difluoro-cyclopenta[c]pyrazol-1(4H)-yl)acetamide] | 17% | 10700 nM
12 | Cc1cccc(-c2cccnc2[C@H](Cc2cc(F)cc(F)c2)NC(=O)Cn2nc(C(F)(F)F)c3c2CCCC3)c1 [Example 76, (S)—N-(2-(3,5-difluorophenyl)-1-(3-m-tolylpyridin-2-yl)ethyl)-2-(3-(trifluoromethyl)-4,5,6,7-tetrahydro-1H-indazol-1-yl)acetamide] | 20% | 11500 nM
13 | O=C(Cn1nc(C(F)F)c2c1C(F)(F)C1CC21)N[C@@H](Cc1cc(F)cc(F)c1)c1ncccc1-c1cnc2cc[nH]c2c1 (stereo partly drawn) [Example 77, (S)—N-(1-(3-(1H-pyrrolo[3,2-b]pyridine-6-yl)-pyridin-2-yl)-2-(3,5-difluorophenyl)ethyl)-2-(3-(difluoromethyl)-5,6-dihydro-4,5-(methano)-6,6-difluoro-cyclopenta[c]pyrazol-1(4H)-yl)acetamide] | 65% | 12400 nM
14 | O=C(Cc1c[nH]c2ccc(F)cc12)N[C@@H](Cc1cc(F)cc(F)c1)c1ncccc1-c1ccc(Cl)cc1Cl [Example 78, (S)—N-(1-(3-(2,4-dichlorophenyl)pyridin-2-yl)-2-(3,5-difluorophenyl)ethyl)-2-(5-fluoro-1H-indol-3-yl)acetamide] | 11% | 7890 nM
15 | NC(=O)c1cc(-c2cccnc2[C@H](Cc2cc(F)cc(F)c2)NC(=O)Cn2nc(C(F)(F)F)c3c2CCCC3=O)ccc1F [Example 79F, (S)-5-(2-(2-(3,5-difluorophenyl)-1-(2-(4-oxo-3-(trifluoromethyl)-4,5,6,7-tetrahydro-1H-indazol-1-yl)acetamido)ethyl)pyridin-3-yl)-2-fluorobenzamide] | 19% | > 50600 nM
16 | CCOC(=O)c1nn(CC(=O)N[C@@H](Cc2cc(F)cc(F)c2)c2ncccc2-c2ccc(F)c(C(N)=O)c2)c2c1CC1CC2C1 [Example 81D, (S)-5-(2-(2-(3,5-difluorophenyl)-1-(2-(4,5,6,7-tetrahydro-3-carboethoxy-5,7-(methano)indazol-1-yl)acetamido)ethyl)pyridin-3-yl)-2-fluorobenzamide] | 75% | 16700 nM
17 | O=C(Cc1c[nH]c2ccc(F)cc12)N[C@@H](Cc1cc(F)cc(F)c1)c1ncccc1-c1ccc(S(=O)(=O)N2CCOCC2)cc1 [Example 82, (S)—N-(2-(3,5-difluorophenyl)-1-(3-(4-(morpholinosulfonyl)phenyl)pyridin-2-yl)ethyl)-2-(5-fluoro-1H-indol-3-yl)acetamide] | 114% | 19300 nM
18 | O=C(Cn1nc(C(F)(F)F)c2c1CCCC2)N[C@@H](Cc1cc(F)cc(F)c1)c1ncccc1-c1cccc(OC(F)(F)F)c1 [Example 84, (S)—N-(2-(3,5-difluorophenyl)-1-(3-(3-(trifluoromethoxy)phenyl)pyridin-2-yl)ethyl)-2-(3-(trifluoromethyl)-4,5,6,7-tetrahydro-1H-indazol-1-yl)acetamide] | 18% | 9050 nM
19 | O=C(Cn1nc(C(F)F)c2c1C(F)(F)C1CC21)N[C@@H](Cc1cc(F)cc(F)c1)c1ncccc1-c1cnc2nccnc2c1 (stereo partly drawn) [Example 85, (S)—N-(1-(3-(pyrido[2,3-b]pyrazin-7-yl)-pyridin-2-yl)-2-(3,5-difluorophenyl)ethyl)-2-(3-(difluoromethyl)-5,6-dihydro-4,5-(methano)-6,6-difluoro-cyclopenta[c]pyrazol-1(4H)-yl)acetamide] | 9% | 43000 nM
20 | NC(=O)c1cccc(-c2cccnc2[C@H](Cc2cc(F)cc(F)c2)NC(=O)Cc2c[nH]c3cc(F)ccc23)c1 [Example 86, (S)-3-(2-(2-(3,5-difluorophenyl)-1-(2-(6-fluoro-1H-indol-3-yl)acetamido)ethyl)pyridin-3-yl)benzamide] | 97% | 21400 nM
21 | NC(=O)c1cc(-c2cccnc2[C@H](Cc2cc(F)cc(F)c2)NC(=O)Cn2nc(C(F)F)c3c2C2CC(C3)C2)ccc1F [Example 87, (S)-5-(2-(2-(3,5-difluorophenyl)-1-(2-(4,5,6,7-tetrahydro-3-difluoromethyl-5,7-(methano)indazol-1-yl)acetamido)ethyl)pyridin-3-yl)-2-fluorobenzamide] | 101% | 21600 nM
22 | NC(=O)c1cc(-c2cccnc2[C@H](Cc2cc(F)cc(F)c2)NC(=O)Cn2cc(C(F)(F)F)nc2C2CC2)ccc1F [Example 88E, (S)-5-(2-(1-(2-(2-cyclopropyl-4-(trifluoromethyl)-1H-imidazol-1-yl)acetamido)-2-(3,5-difluorophenyl)ethyl)pyridin-3-yl)-2-fluorobenzamide] | 44% | > 53200 nM
23 | Cc1cc(-c2cccnc2[C@H](Cc2cc(F)cc(F)c2)NC(=O)Cn2nc(C(F)(F)F)c3c2CCCC3)cnc1F [Example 89, (S)—N-(2-(3,5-difluorophenyl)-1-(6′-fluoro-5′-methyl-3,3′-bipyridin-2-yl)ethyl)-2-(3-(trifluoromethyl)-4,5,6,7-tetrahydro-1H-indazol-1-yl)acetamide] | 73% | 10700 nM
